Data: US20100152219A1, “PYRAZOLE DERIVATIVES AS INHIBITORS OF RECEPTOR TYROSINE KINASES” (ASTRAZENECA R&D, priority 2003, published 2010)

The compounds below were run against T1, human TrkB kinase (Homo sapiens, UniProt Q16620) (assay: TrkB Assay Format (HTRF kinase assay)). Conditions: Trk inhibitory activity in the in-vitro TrkB HTRF assay.
T1 construct: The intracellular domain of a HIS-tagged human TrkB kinase; His tag; made in house; host or cells: Sf9 insect cells
Assay type: biochemical
Description: TrkB kinase activity is being measured against its ability to phosphorylate synthetic tyrosine residues within a generic polypeptide substrate using homogenous time-resolved fluorescence (HTRF) technology. The intracellular domain of a HIS-tagged human TrkB kinase was expressed in SF9 cells and purified using standard nickel column chromatography. After the kinase is incubated with a biotinylated substrate and adenosine triphosphate (ATP) for 50 minutes at room temperature, the kinase reaction is stopped by the addition of 60 mM ethylenediaminetetraacetic acid (EDTA). The reaction is performed in 384 well microtitre plates and reaction products are detected with the addition of strepavidin-linked and phosphotyrosine-specific antibodies using the Tecan Ultra Evolution Microplate Fluometer after an additional 3-hour incubation at room temperature.

T1 sequence (Q16620 455-822 limits assumed): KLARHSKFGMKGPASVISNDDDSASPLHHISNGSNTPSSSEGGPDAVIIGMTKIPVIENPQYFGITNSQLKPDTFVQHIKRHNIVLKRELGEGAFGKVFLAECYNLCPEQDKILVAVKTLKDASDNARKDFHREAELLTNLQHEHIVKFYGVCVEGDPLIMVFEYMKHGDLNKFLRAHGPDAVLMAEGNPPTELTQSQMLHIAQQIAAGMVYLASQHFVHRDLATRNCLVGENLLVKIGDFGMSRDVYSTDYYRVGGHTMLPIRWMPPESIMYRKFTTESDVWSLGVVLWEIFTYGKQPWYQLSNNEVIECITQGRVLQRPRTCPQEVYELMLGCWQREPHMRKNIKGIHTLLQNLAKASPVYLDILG

`C[C@H](Nc1nccc(Nc2cc(C3CC3)n[nH]2)n1)c1ccc(F)cc1` [Example 42, N^4-(3-Cyclopropyl-1H-pyrazol-5-yl)-N^2-[(1S)-1-(4-fluorophenyl)ethyl]pyrimidine-2,4-diamine] and `OCC[C@H](Nc1nc(Nc2cc(C3CC3)[nH]n2)c2sccc2n1)c1ccc(F)cc1` [Example 64, (3S)-3-({4-[(5-Cyclopropyl-1H-pyrazol-3-yl)amino]thieno[3,2-d]pyrimidin-2-yl}amino)-3-(4-fluorophenyl)propan-1-ol] are within 1.5-fold of each other in IC50: 67 nM for the first, 59 nM for the second.

`COc1ccc2nc(N[C@@H](CO)c3ccc(F)cc3)nc(Nc3cc(C4CC4)[nH]n3)c2c1` [Example 80, (2R)-2-({4-[(5-Cyclopropyl-1H-pyrazol-3-yl)amino]-6-methoxyquinazolin-2-yl}amino)-2-(4-fluorophenyl)ethanol] was tested, and the IC50 was 87 nM.
